Test results: patent US20250064890A1, “PROTEIN COMPOSITIONS FOR THE TREATMENT OF INFLAMMATORY DISEASES” (Unichem Laboratories Limited, priority 2021, published 2025)

Experiments:
[1] = system: oral (buccal) mucosa cells (TR146); experiment: Restoration of mitochondrial membrane potential (JC-1) against 5-FU induced damage; assay type: cell-based, human; conditions: for MMP: mitochondrial membrane potential, red/green JC-1 fluorescence ratio
Experimental: (§1) Oral buccal mucosal cells (TR146) were incubated overnight in 5% CO2 incubator at 37° C. for 24 h. […] After 24 h of treatment, cells were exposed to damage (5-FU 5 mM) for 1.25 h for chemotherapy induced inflammation and exposed to gamma radiation (3.5 kGy) using Cobalt 60 for radiation induced inflammation. After the exposure, the anti-apoptotic effect of SEQ ID NO 2 was determined by restoration of mitochondrial membrane depolarization by JC-1 staining and reduction in apoptotic cell populations (Annexin positive and subG0/G1 cells in cell cycle analysis).
After incubation, the supernatants were discarded and 100 μl of JC1-dye solution (prepared by diluting 1 mM DMSO stock into 10 μM in 1×PBS) was added to each well. The cells were then incubated with the dye in CO2 incubator at 37° C. for 15 min, after which the supernatant was removed, and the cells were washed twice with 1×PBS. 100 μl of 1×PBS was finally added to each well. Red fluorescence (excitation 550 nm, emission 600 nm) and green fluorescence (excitation 485 nm, emission 535 nm) were measured using Biotek Synergy HT plate reader. The mitochondrial membrane potential (Δψm) was calculated as the ratio of intensity of red fluorescence to intensity of green fluorescence.
The percentage increase/restoration in mitochondrial membrane potential (MMP) was calculated as: % Increase=[(R−X)/R]*100 • Where, X=Δψm corresponding to TI+5-FU treated cells or TI+radiation treated cells; R=Δψm corresponding to control cells (FU damaged or Radiation damaged alone)

[2] = system: NF-kB; experiment: Multiplex analysis, radiotherapy, TR146 cell lysates; assay type: cell-based, human
Experimental: (§2) Oral buccal mucosal cells (TR146) cells were incubated overnight at 37° C. in 5% CO2 incubator. […] The cells were then stimulated with 5-FU (10 mM) for another 24h for chemotherapy and with gamma radiation (3.5 kGy) using Cobalt 60 for radiotherapy. After 24 h, cell culture supernatants were collected from each well and stored at −20° C. till multiplex analysis. For NF-kB estimations, cell lysates were prepared. Levels of biomarkers were estimated using Magpix® multiplex machine. The cells treated with Amifostine (along with 5-FU or radiation) were considered as positive control (PC). Untreated cells (5-FU or radiation alone treated) were used as negative control (NC).
(§3) The percent modulation in each sample was determined as follows:
(§4) [{Concentration of biomarkers (pg/ml) in Control cells (5-FU or radiation alone treated)−Concentration of biomarkers (pg/ml) in SEQ ID NO: 2+5-FU or radiation treated cells)}/Concentration of biomarkers (pg/ml) in Control cells (5-FU or radiation alone treated)]*100

[3] = system: oral (buccal) mucosa cells (TR146); experiment: Annexin positive cell population against radiation damage; assay type: cell-based, human; conditions: for % Apoptotic cells: Annexin positive
Experimental: as §1
To determine the reduction in apoptotic cell populations using annexin-v staining cells were gently harvested into pre-labeled sterile centrifuge tubes and centrifuged at 300×g for 5-7 min. Supernatant were discarded and the pellet was resuspended in 200 μl of fresh culture medium. 100 μl of cell suspension was transferred into pre-labeled sterile centrifuge tubes. 100 μl of Annexin-V reagent was added to each tube and incubated for 30 min at RT in dark. Cells stained for Annexin-V were then transferred into 96-well plates and acquired on flow cytometer (Guava technologies). Percentage of Annexin-V positive cells was calculated as follows:
={[% Annexin positive cells in 5-FU or radiation alone]−[% Annexin positive cells in (TI+5-FU) or (TI+radiation)]/% Annexin positive cells in 5-FU or radiation alone}*100

[4] = system: oral (buccal) mucosa cells (TR146); conditions: human, 24 h
Experimental: Non-cytotoxic concentration of recombinant lectin having the amino acid sequence of SEQ ID NO: 2 was determined by treating oral (buccal) mucosa cells (TR146) with varying concentration of SEQ ID NO: 2 for 24 hrs and determining the cell viability using MTT assay.

[5] = system: oral (buccal) mucosa cells (TR146); experiment: Cytoprotective effect against 5-FU induced damage (MTT); assay type: cell-based, human
Experimental: The cell viability was assessed by (MTT) assay and compared with positive control (Cells treated with Amifostine, EGCG and EGF and negative assay (untreated cells), wherein the control was the cells that underwent chemotherapy/radiotherapy.
The protective effect of the recombinant lectin on survival of TR146 cells against 5-FU induced damage was determined using following calculations:
The viability of cells was determined as: % Cell viability=(100−% Cytotoxicity); • where, the percentage cytotoxicity corresponding to each treatment was calculated as: % Cytotoxicity=[(R−X)/R]*100, wherein X=Absorbance of cells treated with 5-FU or radiation damage/TI+5-FU, R=Absorbance of Control cells (Untreated) and Percentage protection was calculated as:
{(Absorbance of TI+5-FU or radiation)−(Absorbance of 5-FU or radiation alone)/(Absorbance of Untreated)−(Absorbance of 5-FU alone)}*100

[6] = system: MMP-3; experiment: Multiplex analysis, radiotherapy, TR146; assay type: cell-based, human
Experimental: as §2, §3, §4

[7] = system: VEGF; experiment: Multiplex analysis, radiotherapy, TR146; assay type: cell-based, human
Experimental: as §2, §3, §4

[8] = system: IL-1β; experiment: Multiplex analysis, radiotherapy, TR146; assay type: cell-based, human
Experimental: as §2, §3, §4

[9] = system: TNF-α; experiment: Multiplex analysis, radiotherapy, TR146; assay type: cell-based, human
Experimental: as §2, §3, §4

[10] = system: MMP-8; experiment: Multiplex analysis, radiotherapy, TR146; assay type: cell-based, human
Experimental: as §2, §3, §4

[11] = system: IL-6; experiment: Multiplex analysis, radiotherapy, TR146; assay type: cell-based, human
Experimental: as §2, §3, §4

[12] = system: CCL-2; experiment: Multiplex analysis, radiotherapy, TR146; assay type: cell-based, human
Experimental: as §2, §3, §4

[13] = system: RAGE; experiment: Multiplex analysis, radiotherapy, TR146; assay type: cell-based, human
Experimental: as §2, §3, §4

[14] = 0.1 μg/ml + Radiation (3.5 kGy)

NCCCNCCSP(=O)(O)O [Amifostine, reference compound]
% Increase in MMP (with respect to control) ([1]; 1 μg/ml + 5FU): 68.7%
MMP ([1]; 1 μg/ml + 5FU): 14.3
% Increase in MMP (with respect to control) ([1]; 5 μg/ml + 5FU): 64.9%
MMP ([1]; 5 μg/ml + 5FU): 14
% Increase in MMP (with respect to control) ([1]; 10 μg/ml + 5FU): 85.3%
MMP ([1]; 10 μg/ml + 5FU): 15.7
% Increase in MMP (with respect to control) ([1]; 25 μg/ml + 5FU): 90%
MMP ([1]; 25 μg/ml + 5FU): 16.1
% Increase in MMP (with respect to control) ([1]; 50 μg/ml + 5FU): 105.2%
MMP ([1]; 50 μg/ml + 5FU): 17.4
Percentage Inhibition NF-kB [2, 14]: 15.8%
Percentage Inhibition NF-kB ([2]; 10 μg/ml + Radiation (3.5 kGy)): 17.7%
% Decrease in Apoptotic cells (with respect to radiation control) [3, 14]: 47.3%
% Apoptotic cells [3, 14]: 7.2%
% Decrease in Apoptotic cells (with respect to radiation control) ([3]; 1 μg/ml + Radiation (3.5 kGy)): 32.6%
% Apoptotic cells ([3]; 1 μg/ml + Radiation (3.5 kGy)): 9.2%
% Decrease in Apoptotic cells (with respect to radiation control) ([3]; 10 μg/ml + Radiation (3.5 kGy)): 63%
% Apoptotic cells ([3]; 10 μg/ml + Radiation (3.5 kGy)): 5.1%
non-cytotoxic concentration range [4]: 1 to 25 µg/mL
% Protection ([5]; 1 μg/ml + 5-FU (5 mM)): 4.1%
% Protection ([5]; 5 μg/ml + 5-FU (5 mM)): 28.8%
% Protection ([5]; 10 μg/ml + 5-FU (5 mM)): 55.2%
% Protection ([5]; 25 μg/ml + 5-FU (5 mM)): 37.5%
Percentage Inhibition MMP-3 [6, 14]: 51.9%
Percentage Inhibition MMP-3 ([6]; 10 μg/ml + Radiation (3.5 kGy)): 47.4%
Percentage Inhibition VGEF [7, 14]: 10.3%
Percentage Inhibition VGEF ([7]; 10 μg/ml + Radiation (3.5 kGy)): 7.2%
Percentage Inhibition IL-1β [8, 14]: 10.7%
Percentage Inhibition IL-1β ([8]; 10 μg/ml + Radiation (3.5 kGy)): 12.1%
Percentage Inhibition TNF-α [9, 14]: 49.3%
Percentage Inhibition TNF-α ([9]; 10 μg/ml + Radiation (3.5 kGy)): 44.3%
Percentage Inhibition MMP-8 [10, 14]: 3.6%
Percentage Inhibition MMP-8 ([10]; 10 μg/ml + Radiation (3.5 kGy)): 13%
Percentage Inhibition IL-6 [11, 14]: 14.2%
Percentage Inhibition IL-6 ([11]; 10 μg/ml + Radiation (3.5 kGy)): 1.3%
Percentage Inhibition CCL-2 [12, 14]: 23.1%
Percentage Inhibition CCL-2 ([12]; 10 μg/ml + Radiation (3.5 kGy)): 0.1%
Percentage Inhibition RAGE [13, 14]: 45.1%
Percentage Inhibition RAGE ([13]; 10 μg/ml + Radiation (3.5 kGy)): 40.3%
